According to BigSolDB 2.1:

O=C(O)c1ccco1
solubility (mole fraction)
Conditions | in 1,2-dichloroethane | in MIBK | in acetonitrile | in diisopropyl ether | in methanol | in n-hexane | in toluene
283.15 K | 0.014 | 0.095 | 0.046 | 0.035 | 0.347 | – | 0.005
288.15 K | 0.017 | 0.11 | 0.057 | 0.041 | 0.393 | – | 0.006
293.15 K | 0.023 | 0.122 | 0.064 | 0.048 | 0.428 | – | 0.008
298.15 K | 0.029 | 0.137 | 0.077 | 0.054 | 0.451 | 0.001 | 0.011
303.15 K | 0.035 | 0.154 | 0.093 | 0.061 | 0.48 | 0.001 | 0.013
308.15 K | 0.046 | 0.177 | 0.115 | 0.069 | 0.504 | 0.001 | 0.017
313.15 K | 0.057 | 0.195 | 0.132 | 0.077 | 0.524 | 0.002 | 0.021
318.15 K | 0.068 | 0.211 | 0.155 | 0.087 | 0.551 | 0.002 | 0.027
323.15 K | 0.084 | 0.237 | 0.182 | 0.097 | 0.571 | 0.003 | 0.034
328.15 K | 0.103 | 0.26 | 0.208 | 0.108 | 0.607 | 0.004 | 0.045
333.15 K | 0.126 | 0.286 | 0.242 | 0.121 | 0.643 | 0.005 | 0.056
